Results on 29 molecules are retold here after ChEMBL document CHEMBL1136625, “Substituted quinolines induce inhibition of proliferation of HTLV-1 infected cells” (2003).

In the first assay the test system is Human T-cell leukemia virus type I. The assay is described as follows: Inhibitory activity against human T-lymphotropic virus type 1 (HTLV-1) infected HUT-102 cells at 10 uM. Format: functional. To be noted: Primate T-lymphotropic virus 1, HuT-102.
Broadly, the inhibition is the drop in the measured response relative to a control, in per cent. Low values mean a response near the control, high ones a response far below the control. With `C[Si](C)(C)C#Cc1ccc2ccccc2n1`, testing at 10 µM gave an inhibition of 87%.

The molecule `CCCCCCCCCCCC/C=C/c1ccc2ccccc2n1` displayed an inhibition at 10 µM of 6%. For the molecule `BrC(Br)=Cc1ccc2ccccc2n1`, the inhibition at 10 µM came out at 0%. `c1ccc2nc(CCc3ccc4c(c3)OCO4)ccc2c1`: the inhibition at 10 µM is 50%. Turning to `CCCCCCCCCCCCCCc1ccc2ccccc2n1`, at 10 µM the inhibition was 12%.

Molecule `O=C/C=C/c1ccc2ccccc2n1` gave an inhibition at 10 µM of 34%. On to `CCCc1ccc2ccccc2n1`, for which at 10 µM the inhibition was 0%.

`c1ccc(C2OC2c2ccc3ccccc3n2)cc1` (centres undefined): 10 µM produced 0% inhibition. The molecule `c1ccc(-c2ccc3ccccc3n2)cc1` [2-PHENYLQUINOLINE] came in with an inhibition at 10 µM of 0%. On the same count and under the same terms, the result for `CC(O)Cc1ccc2cccc(O)c2n1` (centres undefined) reads 85%; that for `CC1OC1c1ccc2ccccc2n1` (centres undefined), 0%; that for `C(=C\c1ccc2ccccc2n1)/c1ccccc1`, 0%.

The molecule `CC(C)c1ccc2ccccc2n1` registered an inhibition at 10 µM of 0%. On the same count and under the same terms, next, `OC/C=C/c1ccc2ccccc2n1`: 0%; `COc1ccc(/C=C/c2ccc3ccccc3n2)cc1OC`: 0%; `OC(c1ccc2ccccc2n1)C1CC1` (centres undefined): 0%.

The molecule `[O-][n+]1c(/C=C/c2ccccc2)ccc2ccccc21` came in with an inhibition at 10 µM of 86%.

`CCCCCc1ccc2ccccc2n1` showed an inhibition at 10 µM of 0%. Turning to `C=Cc1ccc2ccccc2n1`, the inhibition at 10 µM is 87%. `COc1ccc(C(O)Cc2ccc3ccccc3n2)cc1OC` (centres undefined) came in with an inhibition at 10 µM of 0%. In turn, `CC/C=C/c1ccc2ccccc2n1` registered an inhibition at 10 µM of 0%. On to `COC(=O)/C=C/c1ccc2ccccc2n1`, for which the inhibition at 10 µM was found to be 4%.

The molecule `COC(=O)/C=C/c1ccc2cc(C)ccc2n1` came in with an inhibition at 10 µM of 45%. `C(#Cc1cnc2ccccc2c1)CCC#Cc1cnc2ccccc2c1` registered an inhibition at 10 µM of 82%. The molecule `CCC/C=C/c1ccc2ccccc2n1` registered an inhibition at 10 µM of 46%. For the molecule `OC(Cc1ccc2ccccc2n1)c1ccccc1` (centres undefined), the inhibition at 10 µM was determined as 16%.

The species named for the next assay is Homo sapiens. The assay is described as follows: Inhibitory activity against human T-lymphotropic virus type 1 (HTLV-1) infected HUT-102 cells at 50 uM.
Conditions: not given
Format: functional.
In the case of `C(=C\c1ccc2ccccc2n1)/c1ccc2ccccc2n1`, 50 µM produced 0% inhibition.

The molecule `O=[N+]([O-])/C=C/c1ccc2ccccc2n1` displayed an inhibition at 50 µM of 0%. In turn, `CC(=O)Cc1ccc2ccccc2n1` gave an inhibition at 50 µM of 0%.
